“And” between values parts separate entries of the source, which are not always exact repeats. Identical values can stand only once. Like-named read-outs stand apart in the source and are kept apart here.

1 molecule from patent US20050014762A1, “Combination” (priority 2001, published 2005) can be followed below.

The subject of this assay is SRS-A-mediated bronchoconstriction after ovalbumin (OVA) challenge in guinea pigs. The assay can be described thus: SRS-A-mediated (OVA-induced) bronchoconstriction in anaesthetized, mechanically ventilated sensitized guinea pigs. It counts as in vivo, guinea pig. Conditions: Cavia porcellus. The method, then: Male Dunkin Hartley guinea pigs; body weight 200-250 g at sensitization and 350-500 g when performing the experiments. Ovalbumin (OVA) was used as allergen for active sensitization. Therefore, 20 μg OVA together with 20 mg Al(OH)3 suspended in 0.5 ml 0.9% NaCl-solution (=saline) were administered i.p. to each animal on 2 consecutive days. […] Controls received the drug-free methocel-solution 1 h before OVA-challenge as placebo (n=12). OVA-challenge and lung function measurements were performed in anaesthetized and mechanically ventilated animals. […] To enhance the SRS-A-mediated bronchoconstriction, the animals were pretreated with: indomethacin 10 mg/kg i.v. 20 min before OVA-challenge to block the cyclooxygenase pathway and to enhance the production of lipoxygenase-mediators, mainly leukotrienes. […] The time-effect curve for the delta-%-decrease of compliance and conductance was determined up to 12 min post challenge. Blood pressure and heart rate were monitored to control vitality. The area under the time-delta-%-decrease curves (AUC) was determined for each animal. On basis of the AUC-values, the inhibition of the SRS-A-induced decrease of compliance and conductance was calculated in reference to placebo. […] Measured and calculated ED50-values were compared by an unpaired t-test for statistical significant differences.

Regarding `O=C(Nc1c(Cl)cncc1Cl)c1ccc(OC(F)F)c(OCC2CC2)c1` [ROFLUMILAST, 3-cyclopropylmethoxy-4-difluoromethoxy-N-(3,5-dichloropyrid-4-yl)-benzamide], the ED50 is 0.58 mg/kg and 1.45 µmol/kg (read-out: ED50, inhibition of decrease of airway compliance); 0.69 mg/kg and 1.73 µmol/kg (read-out: ED50, inhibition of decrease of airway conductance).
